Among the data in US8691255B2, “Method of producing high alcohol content foaming compositions with silicone-based surfactants” (Deb Worldwide Healthcare Inc., priority 2005, dated 2014) are foam results values, retold here.

The series is described as follows: Foam evaluation of the prepared solutions: foam produced or not, and foam description. It counts as physicochemical. To be noted: alone, 40% ethanol, 3% CAPB; compared with 60% v/v ethanol and less than 1.0% silicone-based surfactants. Here is the method: Examples 1 through 12 were prepared to illustrate the ability to produce alcohol-based disinfecting formulations which can be dispensed as foams using different surfactants and a solution of water and 50% ethanol. Examples 13 through 16 illustrate increasing concentrations of a silicone-based surfactant to produce foam with 40% ethanol. Examples 17 through 32 show increasing concentrations of ethanol with different silicone-based surfactants to produce foam. Examples 33 through 36 illustrate increasing concentrations of a silicone-based surfactant to produce acceptable foam at 62% ethanol. Examples 37 through 52 illustrate the ability to produce foam using different surfactants and a solution of 70% v/v Isopropanol. All parts and percentages are expressed by weight unless otherwise indicated.
The following examples were intended to evaluate the foaming ability of different groups of Silicon surfactants with different combinations of ethanol, n-propyl alcohol and Isopropyl alcohol. They were also designed to assess the effect in the after feel as well as in the foam quality of some emollients and humectants, lipids, and other cosmetic type desired ingredients to be used with a leave-on hand sanitizer product. […]
The solutions prepared, were evaluated as to whether foam was produced or not and if so, then the foam produced was described as follows: […]

Turning to Cocamidopropyl betaine, the foam results is “unable to produce as good results”.
